The results in this text go back to patent US20240335462A1, “SULFUR/PHOSPHORUS-CONTAINING ARYL COMPOUND AND APPLICATION THEREOF” (MEDSHINE DISCOVERY INC., priority 2021, published 2024).

One assay deals with TYK2 JH2 pseudokinase (Homo sapiens, UniProt P29597). The assay is described as follows: Inhibitory activity on TYK2 JH2 pseudokinase (TR-FRET). In kind it is binding. The note with it: 60 min room temperature, read-out: Kinase half maximal inhibitory concentration IC50 TYK2 JH2. As to the method:
In this experiment, the inhibitory effect of compounds on TYK2 JH2 pseudokinase was tested using the method of time-resolved fluorescence resonance energy transfer (TR-FRET). In the experiment, TYK2 JH2 or JAK1 JH2 pseudokinase can simultaneously bind to fluorescently labeled Tracer and Tb antibody to form a “sandwich structure”. Tb antibody, functioning as a fluorescent donor, produces fluorescence at a wavelength of 495 nm under the excitation of light at a specific wavelength. Tracer, functioning as a fluorescent acceptor, can receive fluorescence at a wavelength of 495 nm and thus produce fluorescence at a wavelength of 520 nm, i.e., a time-resolved fluorescence resonance energy transfer (TR-FRET) signal, only when it is within the “sandwich structure”, i.e., when it is sufficiently close to Tb antibody. When the compound is added to compete with Tracer for binding to the pseudokinase, the binding of Tracer decreases, leading to a weakened TR-FRET signal. The inhibitory activity of the compound binding to the pseudokinase can be reflected by the ratio of signal values at 520 nm/495 nm.
The working solution consists of the following components: HEPES (pH 7.5) at a final concentration of 20 mM; MgCl2 at a final concentration of 10 mM; Brij-35 at a final concentration of 0.015%; DTT at a final concentration of 2 mM; and BSA at a final concentration of 50 μg/mL.
• a) The compound was dissolved in DMSO to achieve a storage concentration of 10 mM. • b) Various concentrations of the compound, 200 times the final concentration, were prepared in a compound dilution plate and transferred to an Echo plate. • c) The Echo instrument was used to transfer 150 nL of the compound from the Echo plate to a 384-well experimental plate. • d) 5 μL of TYK2 JH2 kinase, at three times the final concentration, was added to the 384-well experimental plate. • e) 5 μL of Tb, at three times the final concentration, was added to the 384-well experimental plate. • f) 5 μL of Tracer, at three times the final concentration, was added to the 384-well experimental plate. • g) The plate was centrifuged for 30 seconds and then incubated at room temperature for 60 minutes. • h) The fluorescence signal values at 520 nm/495 nm were measured using an Envision plate reader (PerkinElmer).
Data analysis was performed using the XL-Fit software to determine the IC50 of the compounds.
In general terms: Time-resolved FRET reads energy transfer from a long-lived donor to a nearby acceptor.

For assay [1], the system named is TYK2 signaling pathway (IFN-α/pSTAT1). The assay is described as follows: IFN-α-induced STAT1 phosphorylation in mouse whole blood. In kind it is cell-based. The note with it: CD3+ cells. As to the method:
The purpose of this experiment was to detect the inhibitory effect of the compound on the JAK-STAT signaling pathway activated by IFN-α in mouse whole blood. Fresh mouse whole blood was collected and placed in a 96-well plate. The test compound was added and incubated for 1 hour, followed by stimulation with IFN-α. The corresponding STAT1 phosphorylation level in the CD3^+ cell population was analyzed using flow cytometer by means of surface antibody staining and intracellular phosphorylated antibody staining. The IFN-α-induced STAT1 phosphorylation in mouse whole blood is dependent on TYK2 activity. By detecting the inhibitory activity of the compound on downstream […] phosphorylation, the half maximal inhibitory concentration (IC50) of the compound on TYK2 signaling pathway activity can be determined.
• a) The compound was prepared into a 10 mM solution with dimethyl sulfoxide (DMSO), and diluted in DMSO to a solution with various concentrations, 500 times the final concentration. • b) 5 μL of the diluted compound was transferred to 120 μL of phosphate buffered saline (PBS) containing 0.1% bovine serum albumin (BSA). • c) Positive and negative control groups were set up, with both finally containing 0.2% DMSO.
• a) 67.5 μL of mouse whole blood was added to each well of a 96-well cell culture plate. • b) 3.5 μL of the diluted compound was added thereto and mixed thoroughly. • c) The plate was incubated in a 37° C. incubator for 60 minutes. • d) Mouse interferon recombinant protein was diluted 125-fold in PBS containing 0.1% BSA, and anti-mouse CD3 antibody was diluted 5-fold in PBS containing 0.1% BSA. 5 μL of diluted anti-mouse CD3 antibody and 4 μL of diluted mouse interferon recombinant protein were added to each well. • e) The plate was incubated in a 37° C. incubator for 30 minutes. • f) All cells were transferred to a 96-well deep well plate, and 1 mL of 37° C. pre-warmed 1× lysis/fixation buffer was added thereto. • g) The cells were incubated in the dark at 37° C. for 10 minutes. • h) After centrifugation at 600 g for 5 minutes, the supernatant was discarded, and the cells were washed twice with 1 mL of PBS by centrifugation. • i) 0.4 mL per well of permeabilization buffer was added to the cell pellet and mixed thoroughly. The cells were incubated in the dark at 4° C. for 30 minutes. • j) After centrifugation at 600 g for 5 minutes, the supernatant was discarded, and the cells were washed twice with 1 mL of flow cytometry staining buffer (PBS+0.2% BSA+1 mM EDTA) by centrifugation. • k) Anti-STAT1 antibody was diluted 65-fold in flow cytometry staining buffer, and added to cell-containing wells at 100 μL per well and mixed thoroughly. • l) The cells were incubated at room temperature for 40 minutes. • m) 1 mL per well of flow cytometry staining buffer was added, and the cells were washed twice by centrifugation at 600 g for 5 minutes. • n) The supernatant was discarded, and the cell pellet was resuspended in 300 μL of flow cytometry staining buffer. • o) The samples were loaded for analysis using the Beckman CytoFlex flow cytometer.
Data were analyzed using FlowJo software. Curve fitting was performed and the IC50 was calculated using GraphPad Prism 8 software.

The structures appear in SMILES notation.

TYK2 JH2 pseudokinase, sequence (P29597 589-875 limits assumed): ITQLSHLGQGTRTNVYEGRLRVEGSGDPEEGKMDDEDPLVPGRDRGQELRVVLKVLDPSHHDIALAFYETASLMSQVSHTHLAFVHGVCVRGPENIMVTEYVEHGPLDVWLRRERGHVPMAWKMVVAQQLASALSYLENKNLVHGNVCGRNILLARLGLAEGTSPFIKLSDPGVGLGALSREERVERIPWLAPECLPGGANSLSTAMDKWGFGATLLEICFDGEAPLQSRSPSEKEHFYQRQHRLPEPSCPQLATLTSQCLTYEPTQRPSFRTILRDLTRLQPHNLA

With `CNC(=O)c1cnc(NC(=O)C2CC2)cc1Nc1cccc(-c2ncc(S(=O)(=O)C(C)C)cn2)c1OC` [WX-019], the IC50 on TYK2 JH2 pseudokinase is 0.09 nM; in assay [1], 427 nM.
`CNC(=O)c1cnc(NC(=O)C2CC2)cc1Nc1cccc(-c2ccc(S(=O)(=O)C(C)C)cn2)c1OC` [WX-020] gave an IC50 in assay [1] of 369 nM.
Regarding `CNC(=O)c1cnc(NC(=O)C2CC2)cc1Nc1cccc(-c2ccc(S(=O)(=O)C(C)C)cn2)c1OC.Cl` [Hydrochloride of WX-020], the IC50 at TYK2 JH2 pseudokinase is 0.08 nM.
With `CNC(=O)c1nnc(NC(=O)C2CC2)cc1Nc1cccc(-c2ccc(P(=O)(C3CC3)C3CC3)cn2)c1OC` [WX-021], the IC50 amounted to 0.08 nM on TYK2 JH2 pseudokinase and 452 nM in assay [1].
For the compound `CNC(=O)c1nnc(NC(=O)C2CC2)cc1Nc1cccc(-c2ccc(S(=N)(=O)C(C)C)cn2)c1OC` (single isomer, unassigned) [WX-012A], at TYK2 JH2 pseudokinase, the IC50 came to 0.08 nM.
On to `CNC(=O)c1nnc(NC(=O)C2CC2)cc1Nc1cccc(-c2ncc(S(=N)(=O)C(C)C)cn2)c1OC` (single isomer, unassigned) [WX-011B], for which the IC50 at TYK2 JH2 pseudokinase turned out to be 0.08 nM; in assay [1], 375 nM.
As for `CNC(=O)c1nnc(NC(=O)C2CC2)cc1Nc1cccc(-c2ncc(S(=N)(=O)C(C)C)cn2)c1OC` (single isomer, unassigned) [WX-011A], the IC50 worked out at 0.1 nM on TYK2 JH2 pseudokinase and 148 nM in assay [1].
The matching figures for `CNC(=O)c1nnc(NC(=O)C2CC2)cc1Nc1cccc(-c2ccc(S(=N)(=O)C(C)C)cn2)c1OC` (single isomer, unassigned) [WX-012B]: 0.08 nM and 419 nM.
